Data: paper PMC12527922, “Cocaine chemogenetics blunts drug-seeking by synthetic physiology” (Nature, 2025)
Where “and” joins values, the source holds several entries; their conditions need not be identical. Identical values can stand only once. Like-named read-outs stand apart in the source and are kept apart here.

Key:
[1] = system: coca-GlyR in cultured hippocampal neurons; assay: Current-clamp of cultured hippocampal neurons expressing coca-GlyR; format: cell-based, rat
[2] = biological target: α7–5HT3 mutant chimeric channels (Homo sapiens, UniProt P36544, W77F); assay: cell-based; format: cell-based, human α7 nAChR LBD, mouse 5HT3 IPD
[3] = biological target: α7–5HT3 mutant chimeric channels (Homo sapiens, UniProt P36544, S170G); assay: cell-based; format: cell-based, human α7 nAChR LBD, mouse 5HT3 IPD
[4] = biological target: α7–5HT3 mutant chimeric channels (Homo sapiens, UniProt P36544, Q139L); assay: cell-based; format: cell-based, human α7 nAChR LBD, mouse 5HT3 IPD
[5] = biological target: α7–5HT3 mutant chimeric channels (Homo sapiens, UniProt P36544, Q139A); assay: cell-based; format: cell-based, human α7 nAChR LBD, mouse 5HT3 IPD
[6] = biological target: α7–5HT3 mutant chimeric channels (Homo sapiens, UniProt P36544, S170H); assay: cell-based; format: cell-based, human α7 nAChR LBD, mouse 5HT3 IPD
[7] = biological target: α7–5HT3 mutant chimeric channels (Homo sapiens, UniProt P36544, S170E); assay: cell-based; format: cell-based, human α7 nAChR LBD, mouse 5HT3 IPD
[8] = biological target: α7–5HT3 mutant chimeric channels (Homo sapiens, UniProt P36544, Q139Y); assay: cell-based; format: cell-based, human α7 nAChR LBD, mouse 5HT3 IPD
[9] = biological target: α7–5HT3 mutant chimeric channels (Homo sapiens, UniProt P36544, W77Y); assay: cell-based; format: cell-based, human α7 nAChR LBD, mouse 5HT3 IPD
[10] = biological target: α7–5HT3 mutant chimeric channels (Homo sapiens, UniProt P36544, S170T); assay: cell-based; format: cell-based, human α7 nAChR LBD, mouse 5HT3 IPD
[11] = biological target: coca-5HT3 (Homo sapiens, UniProt P36544, G175K/L141G/Y210F/Y217F); assay: [^3H]ASEM displacement, membranes of HEK293 cells expressing coca-5HT3; format: binding, human α7 nAChR LBD, mouse 5HT3 IPD; details: for [3H]ASEM binding, normalised dose-response (DR replicates): HotNM 2.000
Description: (§1) Cells were suspended in Tris-HCl 50 mM pH 7.4 supplemented with protease inhibitor cocktail (1:100, Sigma-Aldrich). HEK293 cells were disrupted with a 6 Polytron homogenizer (Kinematica). Homogenates were centrifuged at 48,000g (50 min, 4 °C) and washed twice in the same conditions to isolate the membrane fraction. Protein was quantified using the bicinchoninic acid method (Pierce). […] Free and membrane-bound radioligands were separated by rapid filtration of 500 μl aliquots in a 96-well plate harvester (Brandel) and washed with 2 ml of ice-cold Tris-HCl buffer. Microscint-20 scintillation liquid (65 μl per well, PerkinElmer) was added to the filter plates, plates were incubated overnight at room temperature and radioactivity counts were determined in the MicroBeta2 plate counter (PerkinElmer) with an efficiency of 41%. Two-site competition curves were fitted using Prism 10 (GraphPad). Ki values were calculated using the Cheng–Prusoff equation.

[12] = system: rats with coca-5HT3 in the LHb; assay: Cocaine IVSA (intravenous self-administration); format: in vivo, rat; details: Coca-5HT3 rats
[13] = system: coca-5HT3 in cultured hippocampal neurons; assay: Current-clamp of cultured hippocampal neurons expressing coca-5HT3; format: cell-based, rat; details: for DmV MEAN: coca-5HT3-IRES-EGFP, MEAN of cells
[14] = system: multiple nAChR subtypes; details: cited from earlier work
[15] = biological target: T1, coca-GlyR (Homo sapiens, UniProt P23415+P36544, G175K/L141G/Y217F); assay: [^3H]ASEM displacement, membranes of HEK293 cells expressing coca-GlyR; format: binding; details: for Ki: [^3H]ASEM competition, two-site fit
T1 construct: expressed in transfected cells; host or cells: HEK293 (ATCC CRL-1573), pcDNA3.1
Description: as §1

[16] = Two sites - Fit Ki, best-fit value per replicate
[17] = Two sites - Fit Ki, best-fit value, single experiment

T1 sequence (P36544+P23415 fused P36544:L141G/P36544:G175K/P36544:Y217F): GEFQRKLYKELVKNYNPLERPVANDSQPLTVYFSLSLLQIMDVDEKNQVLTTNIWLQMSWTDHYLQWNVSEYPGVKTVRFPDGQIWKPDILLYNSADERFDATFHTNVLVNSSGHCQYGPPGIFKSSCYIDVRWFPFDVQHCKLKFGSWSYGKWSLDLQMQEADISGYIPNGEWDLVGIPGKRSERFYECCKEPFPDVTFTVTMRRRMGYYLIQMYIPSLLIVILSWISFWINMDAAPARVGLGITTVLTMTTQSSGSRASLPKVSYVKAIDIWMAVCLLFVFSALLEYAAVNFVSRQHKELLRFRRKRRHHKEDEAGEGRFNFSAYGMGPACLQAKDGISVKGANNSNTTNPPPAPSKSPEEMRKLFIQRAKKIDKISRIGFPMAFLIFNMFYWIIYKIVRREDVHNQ
Chain of coca-5HT3 (P23979 242-489): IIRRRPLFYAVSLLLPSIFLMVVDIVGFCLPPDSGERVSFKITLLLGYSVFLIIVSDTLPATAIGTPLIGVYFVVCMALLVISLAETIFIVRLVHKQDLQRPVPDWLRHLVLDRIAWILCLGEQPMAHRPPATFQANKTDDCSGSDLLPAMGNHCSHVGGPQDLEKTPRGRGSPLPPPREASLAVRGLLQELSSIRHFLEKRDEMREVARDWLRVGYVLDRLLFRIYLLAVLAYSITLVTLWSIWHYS
Chain of coca-5HT3 (P36544 23-224 L141G/G175K/Y210F/Y217F): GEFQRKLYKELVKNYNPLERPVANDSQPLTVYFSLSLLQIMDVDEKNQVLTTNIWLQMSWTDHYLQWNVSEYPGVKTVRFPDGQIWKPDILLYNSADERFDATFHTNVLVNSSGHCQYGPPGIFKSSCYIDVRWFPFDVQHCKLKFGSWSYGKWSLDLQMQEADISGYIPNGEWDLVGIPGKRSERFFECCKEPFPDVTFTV
Chain of α7–5HT3 mutant chimeric channels (Homo sapiens, UniProt P36544, W77Y) (P36544 23-224 W77Y): as the sequence (P36544 23-224 L141G/G175K/Y210F/Y217F) above, with W55Y, G119L, K153G, F188Y, F195Y counted along it
Chain of α7–5HT3 mutant chimeric channels (Homo sapiens, UniProt P36544, W77Y) (P23979 242-489, further chain): as the sequence (P23979 242-489) above
Chain of α7–5HT3 mutant chimeric channels (Homo sapiens, UniProt P36544, Q139Y) (P36544 23-224 Q139Y): as the sequence (P36544 23-224 L141G/G175K/Y210F/Y217F) above, with Q117Y, G119L, K153G, F188Y, F195Y counted along it
Chain of α7–5HT3 mutant chimeric channels (Homo sapiens, UniProt P36544, Q139Y) (P23979 242-489, further chain): as the sequence (P23979 242-489) above
Chain of α7–5HT3 mutant chimeric channels (Homo sapiens, UniProt P36544, Q139L) (P36544 23-224 Q139L): as the sequence (P36544 23-224 L141G/G175K/Y210F/Y217F) above, with Q117L, G119L, K153G, F188Y, F195Y counted along it
Chain of α7–5HT3 mutant chimeric channels (Homo sapiens, UniProt P36544, Q139L) (P23979 242-489, further chain): as the sequence (P23979 242-489) above
Chain of α7–5HT3 mutant chimeric channels (Homo sapiens, UniProt P36544, Q139A) (P23979 242-489): as above
Chain of α7–5HT3 mutant chimeric channels (Homo sapiens, UniProt P36544, Q139A) (P36544 23-224 Q139A): as the sequence (P36544 23-224 L141G/G175K/Y210F/Y217F) above, with Q117A, G119L, K153G, F188Y, F195Y counted along it
Chain of α7–5HT3 mutant chimeric channels (Homo sapiens, UniProt P36544, W77F) (P23979 242-489): as the sequence (P23979 242-489) above
Chain of α7–5HT3 mutant chimeric channels (Homo sapiens, UniProt P36544, W77F) (P36544 23-224 W77F): as the sequence (P36544 23-224 L141G/G175K/Y210F/Y217F) above, with W55F, G119L, K153G, F188Y, F195Y counted along it
Chain of α7–5HT3 mutant chimeric channels (Homo sapiens, UniProt P36544, S170H) (P23979 242-489): as the sequence (P23979 242-489) above
Chain of α7–5HT3 mutant chimeric channels (Homo sapiens, UniProt P36544, S170H) (P36544 23-224 S170H): as the sequence (P36544 23-224 L141G/G175K/Y210F/Y217F) above, with G119L, S148H, K153G, F188Y, F195Y counted along it
Chain of α7–5HT3 mutant chimeric channels (Homo sapiens, UniProt P36544, S170G) (P23979 242-489): as the sequence (P23979 242-489) above
Chain of α7–5HT3 mutant chimeric channels (Homo sapiens, UniProt P36544, S170G) (P36544 23-224 S170G): as the sequence (P36544 23-224 L141G/G175K/Y210F/Y217F) above, with G119L, S148G, K153G, F188Y, F195Y counted along it
Chain of α7–5HT3 mutant chimeric channels (Homo sapiens, UniProt P36544, S170E) (P23979 242-489): as the sequence (P23979 242-489) above
Chain of α7–5HT3 mutant chimeric channels (Homo sapiens, UniProt P36544, S170E) (P36544 23-224 S170E): as the sequence (P36544 23-224 L141G/G175K/Y210F/Y217F) above, with G119L, S148E, K153G, F188Y, F195Y counted along it
Chain of α7–5HT3 mutant chimeric channels (Homo sapiens, UniProt P36544, S170T) (P36544 23-224 S170T): as the sequence (P36544 23-224 L141G/G175K/Y210F/Y217F) above, with G119L, S148T, K153G, F188Y, F195Y counted along it
Chain of α7–5HT3 mutant chimeric channels (Homo sapiens, UniProt P36544, S170T) (P23979 242-489, further chain): as the sequence (P23979 242-489) above

COC(=O)[C@H]1[C@@H](OC(=O)c2ccccc2)C[C@@H]2CC[C@H]1N2C [cocaine]
rheobase ([1]; coca-GlyR neurons, 10 uM, single cells): 200 pA
firing in response to current injection ([1]; neurons with coca-GlyR): inhibited
membrane input resistance ([1]; neurons with coca-GlyR): dose-dependent reduction
rheobase ([1]; neurons with coca-GlyR, cocaine 3 and 10 µM): increased
EC50 [2]: > 30000 nM
EC50 ([2]; read-out: EC50 at a7 5HT3 W77F, sheet 1d, single determinations): > 30000 nM
EC50 [3]: > 30000 nM
EC50 [4]: > 30000 nM
EC50 ([4]; read-out: EC50 at a7 5HT3 Q139L, sheet 1d, single determinations): > 30000 nM
EC50 [5]: > 30000 nM
EC50 ([5]; read-out: EC50 at a7 5HT3 Q139A, Avg, sheet 1d, Avg): > 30000 nM
EC50 [6]: > 30000 nM
EC50 [7]: > 30000 nM
EC50 [8]: > 30000 nM
EC50 ([8]; read-out: EC50 at a7 5HT3 Q139Y, Avg, sheet 1d, Avg): > 30000 nM
EC50 [9]: > 30000 nM
EC50 ([9]; read-out: EC50 at a7 5HT3 W77Y, Avg, sheet 1d, Avg): > 30000 nM
EC50 [10]: > 30000 nM
binding to coca-5HT3 [11]: biphasic manner
Ki ([11]; KiHi MEAN, Two sites - Fit Ki, MEAN of replicates, high-affinity site, concentrations in log(M)): 1.43e-11 M
Ki ([11]; KiHi, Two sites - Fit Ki, best-fit value per replicate, high-affinity site, concentrations in log(M)): 2.45e-11 M and 4.07e-12 M
Ki ([11]; KiHi, Two sites - Fit Ki, best-fit value, single experiment): 3.36e-09 M and 4.69e-10 M and 1.04e-09 M
Ki ([11]; KiLo MEAN, Two sites - Fit Ki, MEAN of replicates, low-affinity site, concentrations in log(M)): 8.42e-07 M
Ki ([11]; KiLo, Two sites - Fit Ki, best-fit value per replicate, low-affinity site, concentrations in log(M)): 1.34e-06 M and 3.42e-07 M
FractionHi MEAN ([11]; Two sites - Fit Ki, MEAN of 3 experiments): 0.4542
Ki ([11]; Two sites - Fit Ki, MEAN of 3 experiments, read-out: KiHi MEAN): 1.62e-09 M
Ki ([11]; Two sites - Fit Ki, MEAN of 3 experiments, read-out: KiLo MEAN): 1.05e-05 M
Bottom [11, 16]: 2.185 and 3.88
Top [11, 16]: 100.5 and 97.8
FractionHi ([11]; Two sites - Fit Ki, best-fit value per replicate, fraction of high-affinity sites): 0.3742 and 0.3845
logKiHi ([11]; Two sites - Fit Ki, best-fit value per replicate, high-affinity site, concentrations in log(M), HotNM 2.000, HotKdNM 0.1500): -10.61 and -11.39
logKiLo ([11]; Two sites - Fit Ki, best-fit value per replicate, low-affinity site, concentrations in log(M), HotNM 2.000, HotKdNM 0.1500): -5.872 and -6.466
FractionHi [11, 17]: 0.6584 and 0.3371 and 0.3672
Top [11, 17]: 99.93 and 93.31 and 95.95
FractionHi MEAN ([11]; Two sites - Fit Ki, MEAN of replicates): 0.3794
high-affinity binding sites ([11]; biphasic curve, displacement of [^3H]ASEM 2 nM): 45 ± 10%
[3H]ASEM binding, normalised dose-response (DR replicates) ([11]; competitor log(M) -4): 11.458 and 0
[3H]ASEM binding remaining, single experiment ([11]; competitor log(M) -5): 23.47 and 26.447 and 37.669
[3H]ASEM binding, normalised dose-response (DR replicates) ([11]; competitor log(M) -5): 47.775 and 41.228
[3H]ASEM binding remaining, single experiment ([11]; competitor log(M) -5.5): 17.557
[3H]ASEM binding, normalised dose-response (DR replicates) ([11]; competitor log(M) -5.5): 48.554 and 26.456
[3H]ASEM binding remaining, single experiment ([11]; competitor log(M) -6): 27.001
[3H]ASEM binding, normalised dose-response (DR replicates) ([11]; competitor log(M) -6): 57.625 and 37.983
[3H]ASEM binding remaining, single experiment ([11]; competitor log(M) -6.5): 30.205 and 53.107
[3H]ASEM binding, normalised dose-response (DR replicates) ([11]; competitor log(M) -6.5): 51.124 and 74.04
[3H]ASEM binding remaining, single experiment ([11]; competitor log(M) -7): 57.024 and 47.634
[3H]ASEM binding, normalised dose-response (DR replicates) ([11]; competitor log(M) -7): 70.9 and 74.174
[3H]ASEM binding, normalised dose-response (DR replicates) ([11]; competitor log(M) -7.5): 71.728
[3H]ASEM binding remaining, single experiment ([11]; competitor log(M) -8): 65.97 and 67.573 and 58.641
[3H]ASEM binding, normalised dose-response (DR replicates) ([11]; competitor log(M) -8): 67.385 and 47.743
[3H]ASEM binding remaining, single experiment ([11]; competitor log(M) -8.5): 74.698 and 69.889 and 68.057
[3H]ASEM binding remaining, single experiment ([11]; competitor log(M) -9): 100.179 and 77.048 and 83.003
[3H]ASEM binding, normalised dose-response (DR replicates) ([11]; competitor log(M) -9): 72.343 and 49.428
[3H]ASEM binding remaining, single experiment ([11]; competitor log(M) -9.5): 97.899 and 80.952 and 89.425
[3H]ASEM binding remaining, single experiment ([11]; competitor log(M) -10): 96.081 and 90.356 and 93.104
[3H]ASEM binding, normalised dose-response (DR replicates) ([11]; competitor log(M) -10): 79.023
[3H]ASEM binding remaining, single experiment ([11]; competitor log(M) -10.5): 106.622 and 85.323 and 92.652
[3H]ASEM binding remaining, single experiment ([11]; competitor log(M) -11): 94.021 and 93.563 and 93.105
[3H]ASEM binding, normalised dose-response (DR replicates) ([11]; competitor log(M) -11): 91.338
[3H]ASEM binding remaining, single experiment ([11]; competitor log(M) -13): 96.794 and 101.374 and 101.832
[3H]ASEM binding, normalised dose-response (DR replicates) ([11]; competitor log(M) -13): 100.546 and 98.09
Ki ([11]; high-affinity inhibition constant (KiH), displacement of [^3H]ASEM 2 nM, two-site fit): 1.6e-09 ± 9e-10 M
Ki ([11]; logKiHi, Two sites - Fit Ki, best-fit value, single experiment): 3.37e-09 M and 4.69e-10 M and 1.04e-09 M
Ki ([11]; read-out: low-affinity inhibition constant (KiL), displacement of [^3H]ASEM 2 nM, two-site fit): 1e-05 ± 7e-06 M
Sheet 3g, Mean (per-rat counts at each dose) ([12]; Dose 0.0625): 32.0909
Sheet 3h, Mean (sheet 3g count x dose, intake) ([12]; Dose 0.0625): 2.006
Sheet 3g, Mean (per-rat counts at each dose) ([12]; Dose 0.125): 43.1818
Sheet 3h, Mean (sheet 3g count x dose, intake) ([12]; Dose 0.125): 5.398
Sheet 3g, Mean (per-rat counts at each dose) ([12]; Dose 0.25): 30.2727
Sheet 3h, Mean (sheet 3g count x dose, intake) ([12]; Dose 0.25): 7.568
Sheet 3g, Mean (per-rat counts at each dose) ([12]; Dose 0.5): 19.0909
Sheet 3h, Mean (sheet 3g count x dose, intake) ([12]; Dose 0.5): 9.545
Sheet 3g, Mean (per-rat counts at each dose) ([12]; Dose 1): 10.8182
Sheet 3h, Mean (sheet 3g count x dose, intake) ([12]; Dose 1): 10.8182
current required to elicit an action potential (rheobase) ([13]; 3 µM cocaine): reduced
DmV MEAN ([13]; cocaine 0.1 uM): 0.3818 mV
DmV MEAN ([13]; cocaine 0.3 uM): 1.236 mV
DmV MEAN ([13]; cocaine 1 uM): 4.155 mV
DmV MEAN ([13]; cocaine 3 uM): 11.3545 mV
DmV MEAN ([13]; cocaine 10 uM): 12.55 mV
neuronal firing ([13]; cocaine 1–3 µM): increased
depolarization of neurons expressing coca-5HT3 ([13]; current-clamp): depolarized neurons in a dose-dependent manner
activity at nAChR subtypes [14]: low-affinity antagonist
binding to coca-GlyR [15]: biphasic manner
Ki ([15]; KiH): 0.014 ± 0.01 nM
Ki ([15]; KiL): 850 ± 500 nM
high-affinity binding sites ([15]; biphasic competition curve, [^3H]ASEM): 37.9 ± 0.5%
